Reference: ChEMBL document CHEMBL1138737, “High-resolution structures of human aldose reductase holoenzyme in complex with stereoisomers of the potent inhibitor Fidarestat: stereospecific interaction between the enzyme and a cyclic imide type inhibitor” (J Med Chem, 2004)
pIC50: −log10 of the molar value.

Molecular target: Aldo-keto reductase family 1 member B1 (Homo sapiens, UniProt P15121)
Assay: Binding affinity for human Aldose reductase 2 expressed in Escherichia coli

| SMILES | pIC50 |
| --- | --- |
| NC(=O)[C@H]1C[C@@]2(NC(=O)NC2=O)c2cc(F)ccc2O1 (mixture of isomers) | 4.40 |
| NC(=O)[C@H]1C[C@]2(NC(=O)NC2=O)c2cc(F)ccc2O1 [(R,S)-FIDARESTAT] | 6.24 |
| NC(=O)[C@@H]1C[C@@]2(NC(=O)NC2=O)c2cc(F)ccc2O1 [(S,R)-FIDARESTAT] | 4.96 |
| NC(=O)[C@@H]1C[C@]2(NC(=O)NC2=O)c2cc(F)ccc2O1 [FIDARESTAT] | 7.52 |
